Results published in patent publication US6040293A, “Clavanins” (priority 1997, dated 2000).
Starred links: 1 amine or outer side, 2 acyl side, 3 side chain; linkers in the order of their positions; H or OH if unused. Non-standard residues stand in square brackets, D forms with d. No end group written: not given here. Tyr(Me) = O-methyl tyrosine, COc1ccc(C[C@H](N[*:1])C(=O)[*:2])cc1

How the values were obtained:
Type in all cases: cell-based
L. monocytogenes = experiment: minimal bacteriocidal concentrations under various conditions; details: pH 5.5
Procedure: (§1) The Tables below show the minimal bacteriocidal concentrations of PG-1, histatin 5, and Clavanin E(3-23) against various organisms under various conditions. E(3-23) was active over a broad pH range and, unlike hisatin 5, it retained activity in the presence of physiological sodium chloride concentrations.
(§2) Low salt conditions (10 mM phosphate)
(§3) High salt conditions (10 mM phosphate+100 mM NaCl)

S. aureus = test system: S. aureus
Procedure: (§4) In more detail, the filtrates (≈3.5 mg of protein by BCA) were concentrated to 2 ml by vacuum centrifugation in a Speed Vac Concentrator (Savant Instruments, Hicksville, N.Y.). Gel permeation chromatography was performed on a 1.2×65 cm BioGel P-10 gel permeation column with 5% acetic acid. Preparative continuous acid-urea PAGE electrophoresis was performed as described by Harwig, S. S. L. et al., Anal Biochem (1993) 208:382. Active fractions were pooled and purified by RP-HPLC a 4.6×250 mm Vydac C18 column, using various linear gradients of acetonitrile in 0.1% trifluoroacetic acid (TFA) or 0.13% heptafluorobutyric acid (HFBA). Throughout this multistep procedure, fractions were lyophilized, concentrated and tested for antimicrobial activity against Listeria monocytogenes strain EGD by a radial diffusion technique described in Lehrer, R. I. et al., J Immunol Methods (1991) 137:167. In these assays, the underlay gels contained 9 mM sodium phosphate and 1 mM sodium citrate buffer, 0.30 mg/ml of trypticase soy broth powder (BBL, Cockeysville, Md.) and 1% agarose at a final pH of 6.5.
(§5) Clavanin E(2-23) was tested in the standard underlay assay described in Example 1 herein wherein the underlay contained 10 mM sodium phosphate buffer, pH 7.4 and 1:100 trypticase soy broth with and without 200 mM NaCl. The known antimicrobials cecropin A, cecropin B, and cecropin P1 were used as controls.
(§6) The standard underlay assay was again conducted supplying both E(3-23) and PG-1 to the underlay. In these assays, the underlay contained in addition to 1% agarose, 10 mM sodium phosphate buffer, pH 7.4, 1:100 trypticase soy broth and 200 mM NaCl. The underlays contain PG-1 alone, E(3-23) alone, or combinations of E(3-23) and PG-1.
(§7) Finally, the activity of Clavanins A and E as well as E(3-23) and E(6-23) was tested against various target organisms at two pHs with and without salt.

Burkaholderia cepacia = test system: Burkaholderia cepacia
Procedure: as §4, §5, §6

C. albicans = experiment: minimal bacteriocidal concentrations and activity under various conditions; details: pH 5.5
Procedure: as §7, §1, §2, §3

E. coli = experiment: minimal bacteriocidal concentrations under various conditions; design: unit not given here; details: pH 5.5
Procedure: as §1, §2, §3

P. aeruginosa [1] = experiment: as above; design: unit not given here; details: pH 5.5
Procedure: as §1, §2, §3

E. coli ML-35P = experiment: radial diffusion assay; details: radial diffusion (FIG. 5)
Procedure: as §4
(§8) In addition to Cecropin P1 and Magainin 1, the activity of Clavanin A(K) was also tested. Clavanin A(K) is identical to Clavanin A except that all of the histidine residues are replaced by lysine. […] The data are provided as minimal bacteriocidal concentrations expressed in μg/ml which are the X-intercepts of radial diffusion assays performed at pH 6.5 in an underlay that contained 10 mM buffer (9:1 citrate:phosphate), 1% agarose and 0.3 mg trypticase soy powder/ml.

L. monocytogenes EGD = experiment: radial diffusion assay; details: for potency relative to Clavanins A and B: L. monocytogenes Strain EGD, radial diffusion (FIG. 5)
Procedure: as §4, §8
The effect of pH on antimicrobial activity against several organisms was tested in a pH range wherein histidine becomes comparably charged to lysine. FIGS. 6-8 show the results for native or synthetic Clavanin A and synthetic Clavanin A(K) using defensin NP-2 as a control, with respect to L. monocytogenes, E. coli, and C. albicans respectively. The radial diffusion assays were conducted as described in Examples 1 and 3 above.

P. aeruginosa [2] = experiment: standard underlay assay; design: dose or concentration left out as unconfirmed; details: pH 7.4
Procedure: as §4
[…] The known antimicrobials cecropin A, cecropin B, and cecropin P1 were used as controls.
The standard underlay assay was again conducted supplying both E(3-23) and PG-1 to the underlay. […]

E. faecium = experiment: radial diffusion assay; details: X-intercept of radial diffusion assay, pH 6.5
Procedure: as §4, §8

[3] = test system: E. coli, L. monocytogenes, P. aeruginosa, S. areus and C. albicans; experiment: activity against various target organisms at two pHs with and without salt; details: pH 5.5, 200 mM sodium chloride; most organisms (FIG. 13B)
Procedure: as §7

[4] = high salt (10 mM phosphate+100 mM NaCl)

## CC(C)C[C@H](NC(=O)[C@H](CCCNC(=N)N)NC(=O)CNC(=O)CNC(=O)[C@@H](N)CCCNC(=N)N)C(=O)N[C@H]1CSSC[C@@H](C(=O)N[C@H](C(=O)NCC(=O)N[C@@H](CCCNC(=N)N)C(N)=O)C(C)C)NC(=O)[C@H](C(C)C)NC(=O)[C@@H]2CSSC[C@H](NC(=O)[C@H](Cc3ccc(O)cc3)NC1=O)C(=O)N[C@@H](CCCNC(=N)N)C(=O)N[C@@H](CCCNC(=N)N)C(=O)N[C@@H](CCCNC(=N)N)C(=O)N[C@@H](Cc1ccccc1)C(=O)N2 [PG-1]
L. monocytogenes; [4]
  minimal bacteriocidal concentration: 0.10
L. monocytogenes; low salt (10 mM phosphate)
  minimal bacteriocidal concentration: 0.10
S. aureus; pH 7.4
  MBC for PG-1 in the presence of E(3-23): 0.07 µg/mL
  minimum bacterial concentration (MBC), agent alone: approximately 0.9 μg/ml
Burkaholderia cepacia; B. cepacia, pH 7.4, 200 mM NaCl, 1 μg/ml E(3-23) present
  effect of E(3-23) on MBC for PG-1: did not effect MBC
C. albicans; [4]
  minimal bacteriocidal concentration: 0.10
C. albicans; low salt (10 mM phosphate)
  minimal bacteriocidal concentration: 0.06
E. coli; [4]
  minimal bacteriocidal concentration: 0.04
E. coli; low salt (10 mM phosphate)
  minimal bacteriocidal concentration: 0.05
P. aeruginosa [1]; [4]
  minimal bacteriocidal concentration: 0.20
P. aeruginosa [1]; low salt (10 mM phosphate)
  minimal bacteriocidal concentration: 0.20

## AFKLL GRIIH HVGNF VY' GFS HVF* (AFKLLGRIIHHVGNFV[Tyr(Me)]GFSHVF-NH2; also: C-terminal modification (*)) [Clavanin D, Y' is o-methyl tyrosine]
E. coli ML-35P
  potency relative to Clavanins A and B: 3-5 fold
L. monocytogenes EGD
  potency relative to Clavanins A and B: 3-5 fold

## Cecropin P1
P. aeruginosa [2]
  activity, E(3-23) and cecropins compared: slightly more active than E(3-23)
E. faecium
  minimal bacteriocidal concentration: 6.5 µg/mL

## KLLGKIIHHVGNFVHGFSHVF-NH2 [Clavanin E(3-23), KLL GKIIH HVGNF VHGFS HVF*]
S. aureus; pH 7.4
  MBC of E(3-23) in the presence of PG-1: 2.5 µg/mL
  minimum bacterial concentration (MBC), agent alone: 7.5 µg/mL
Burkaholderia cepacia; pH 7.4
  MBC of E(3-23) with PG-1 incorporated: 2.5 µg/mL
  MBC, agent alone: 7.5 µg/mL

## LFKLLGKIIHHVGNFVHGFSHVF (LFKLLGKIIHHVGNFVHGFSHVF) [Clavanin E]
S. aureus; S. aureus, pH 5.5, 200 mM sodium chloride (FIG. 13B)
  effect of salt on activity: maintained its activity
[3]
  effect of salt on activity: better maintained

## VFHLL GKIIH HVGNF VY' GFS HVF* [Clavanin C, Y' is o-methyl tyrosine]
E. coli ML-35P
  potency relative to Clavanins A and B: 3-5 fold
L. monocytogenes EGD
  potency relative to Clavanins A and B: 3-5 fold

## cecropin A (KWKLFKKIEKVGQNIRDGIIKAGPAVAVVGQATQIAK; ends and bridges not checked; UniProt P01507 27-63, looked up) [known antimicrobial used as control]
P. aeruginosa [2]
  activity, E(3-23) and cecropins compared: slightly more active than E(3-23)

## defensin NP-2
L. monocytogenes EGD; L. monocytogenes, radial diffusion, pH 5.5, 6.5, 7.5 (FIG. 6)
  effect of pH of the assay on activity: no effect

## histatin 5 [Hs-5]
L. monocytogenes; [4]
  minimal bacteriocidal concentration: > 500
L. monocytogenes; low salt (10 mM phosphate)
  minimal bacteriocidal concentration: 11.8
C. albicans; [4]
  minimal bacteriocidal concentration: > 500
C. albicans; low salt (10 mM phosphate)
  minimal bacteriocidal concentration: 7.2
E. coli; [4]
  minimal bacteriocidal concentration: 60.6
E. coli; low salt (10 mM phosphate)
  minimal bacteriocidal concentration: 1.1
P. aeruginosa [1]; [4]
  minimal bacteriocidal concentration: > 500
P. aeruginosa [1]; low salt (10 mM phosphate)
  minimal bacteriocidal concentration: 2.2
